# Values joined by “and” are separate entries in the source; they are usually repeats but may differ in a detail not shown here. Equal values may be shown once.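 Method: 48-hour compound exposure of cells in 96-well plates, five concentrations, linear interpolation of endpoints. The concentration for 50% growth inhibition is given as GI50. TGI: total growth inhibition.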
# Tests used:
# Assay in all cases: inhibition of tumour cell growth, NCI panel, 48 h
# MOLT-4 leukemia = system: MOLT-4 leukemia
# 786-0 renal = system: 786-0 renal
# HCT-15 colon = system: HCT-15 colon
# SR leukemia = system: SR leukemia
# IGROV1 ovarian = system: IGROV1 ovarian
# NCI-H460 lung = system: NCI-H460 lung
# SNB-19 CNS = system: SNB-19 CNS
# OVCAR-5 ovarian = system: OVCAR-5 ovarian
# A549 NSCLC = system: A549 NSCLC
# UACC-257 melanoma = system: UACC-257 melanoma
Compound,GI50 (MOLT-4 leukemia),TGI (MOLT-4 leukemia),GI50 (786-0 renal),TGI (786-0 renal),GI50 (HCT-15 colon),TGI (HCT-15 colon),GI50 (SR leukemia),TGI (SR leukemia),GI50 (IGROV1 ovarian),TGI (IGROV1 ovarian),GI50 (NCI-H460 lung),TGI (NCI-H460 lung),GI50 (SNB-19 CNS),TGI (SNB-19 CNS),GI50 (OVCAR-5 ovarian),TGI (OVCAR-5 ovarian),GI50 (A549 NSCLC),TGI (A549 NSCLC),GI50 (UACC-257 melanoma),TGI (UACC-257 melanoma)
CC1(C)N=C(N)N=C(N)N1c1ccc(Cl)cc1,62.3 µM,> 100 µM,0.414 µM,> 100 µM,18.7 µM,> 100 µM,20.5 µM,> 100 µM,2.27 µM,> 100 µM,2.82 µM,> 100 µM,16.7 µM,> 100 µM,0.854 µM,> 100 µM,1.25 µM,> 100 µM,75 µM,> 100 µM
CC(C)[C@@](O)(c1ccc2cc(OC(F)F)c(OC(F)F)cc2c1)c1cn[nH]n1,21.7 µM,70.7 µM,17.2 µM,34.1 µM,15.3 µM,37.4 µM,17.3 µM,44.7 µM,18.7 µM,63.8 µM,18 µM,37.4 µM,20.8 µM,51.2 µM,21.7 µM,55.6 µM,17.6 µM,38.7 µM,22.8 µM,48.5 µM
CC(C)(C)c1cc(/C=N/NC(=O)c2ccccc2NC(=O)c2cccs2)c(O)c(C(C)(C)C)c1,0.872 µM,20.6 µM,0.588 µM,15.7 µM,0.22 µM,> 100 µM,0.786 µM,3.6 µM,0.683 µM,> 100 µM,0.331 µM,1.98 µM,0.916 µM,71.1 µM,2.83 µM,62.4 µM,0.796 µM,17.9 µM,6.18 µM,> 100 µM
COc1ccc(C2CC(c3ccc(Nc4ccnc5cc(Cl)ccc45)cc3)=NN2C=O)cc1 (stereo not drawn),2.55 µM,16.7 µM,32 µM,> 100 µM,2.97 µM,> 100 µM,2.83 µM,6.64 µM,43.1 µM,> 100 µM,> 100 µM,> 100 µM,56.5 µM,> 100 µM,> 100 µM,> 100 µM,50.3 µM,> 100 µM,43.9 µM,> 100 µM
COC(=O)c1ccc(/C=C(\c2ccc([N+](=O)[O-])o2)S(=O)(=O)c2ccc(NC(C)=O)cc2)o1,,7.76 µM,,14.9 µM,,6.83 µM,,4.32 µM,,28.4 µM,,53.9 µM,,32.2 µM,,10.9 µM,,34.1 µM,,4.54 µM
NS(=O)(=O)c1ccc(NC(=O)Cc2nc3ccccc3s2)cc1,,58.6 µM,,33.5 µM,,32.3 µM,,71 µM,,29.9 µM,,35.6 µM,,49.5 µM,,35.2 µM,,37.9 µM,,29.6 µM
COc1cc(-c2nc3sc(C)cn3c2/C=C2\C(=O)Nc3ccccc32)c(Br)c(OC)c1OC,36.4 µM,> 100 µM,21.6 µM,50.5 µM,29.1 µM,> 100 µM,28.3 µM,> 100 µM,23.4 µM,> 100 µM,30.5 µM,94.8 µM,23.9 µM,63.9 µM,55.9 µM,> 100 µM,44 µM,> 100 µM,27.4 µM,81.5 µM
CC(C)(C)CC(C)(C)c1ccc(O)c(Cc2ccc(Cl)cc2Cl)c1,1.66 µM,3.44 µM,1.65 µM,3.1 µM,1.74 µM,3.18 µM,1.79 µM,4.22 µM,1.7 µM,3.12 µM,1.62 µM,2.97 µM,1.82 µM,3.21 µM,1.68 µM,3.08 µM,1.51 µM,2.83 µM,1.51 µM,2.86 µM
COc1cccc(/C=C/C(=O)c2sc(C(N)=S)nc2C)c1O,,> 82.8 µM,,> 100 µM,,> 76.5 µM,,32.5 µM,,> 100 µM,,> 100 µM,,> 100 µM,,> 100 µM,,> 100 µM,,> 100 µM
C#Cc1cccc(Nc2ncnc3ccc(OCCCCNCCS(C)(=O)=O)cc23)c1,7.97 µM,21.4 µM,7.54 µM,> 25 µM,7.41 µM,> 25 µM,6.55 µM,15.3 µM,2.12 µM,> 16.3 µM,10.5 µM,> 25 µM,15.2 µM,> 25 µM,4.93 µM,> 25 µM,6.43 µM,> 25 µM,4.39 µM,8.38 µM
Cc1ccc(C=C2C(Cl)=C(Cl)C(Cl)=C2Cl)cc1,0.186 µM,0.493 µM,0.721 µM,1.75 µM,1.33 µM,4.88 µM,0.166 µM,0.444 µM,0.553 µM,1.64 µM,1.66 µM,3.88 µM,1.33 µM,2.68 µM,0.978 µM,2.49 µM,1.7 µM,3.84 µM,1.58 µM,4.32 µM
O=C(C=P(c1ccccc1)(c1ccccc1)c1ccccc1)CCl,1.59 µM,6.85 µM,1.61 µM,3.56 µM,0.881 µM,4.21 µM,0.38 µM,10.5 µM,1.97 µM,5.75 µM,1.52 µM,3.6 µM,3.55 µM,15.1 µM,1.46 µM,3.73 µM,2.16 µM,8.14 µM,1.14 µM,2.59 µM
Cn1cc(C2=C(c3cn(-c4ccccc4)c4ccccc34)C(=O)NC2=O)c2ccccc21,9.59 µM,> 25 µM,> 25 µM,> 25 µM,10.7 µM,> 25 µM,9.37 µM,> 25 µM,11.7 µM,> 25 µM,17.7 µM,> 25 µM,> 25 µM,> 25 µM,> 25 µM,> 25 µM,11.8 µM,> 25 µM,> 25 µM,> 25 µM
Cc1ccc(S(=O)(=O)N2CCN(C=S)CC2)cc1,,> 100 µM,,> 100 µM,,> 100 µM,,> 100 µM,,> 100 µM,,> 100 µM,,> 100 µM,,> 100 µM,,> 100 µM,,> 100 µM
Oc1ccc2c3c1OC1c4[nH]ncc4C[C@H]4[C@@H](C2)N(CC2CC2)CC[C@]314 (stereo partly drawn),,> 100 µM,,> 100 µM,,> 100 µM,,> 100 µM,,> 100 µM,,> 100 µM,,> 100 µM,,> 100 µM,,> 100 µM,,> 100 µM
O=[N+]([O-])c1ccc(C(Cl)C(Cl)c2ccc(C(Cl)C(Cl)c3ccc([N+](=O)[O-])cc3[N+](=O)[O-])cc2)c([N+](=O)[O-])c1 (stereo not drawn),,> 62 µM,0.321 µM,5.62 µM and 1.09 µM,0.214 µM,3.3 µM and 0.55 µM,,> 62 µM,0.571 µM,11.4 µM and 8.68 µM,0.249 µM,2.15 µM and 0.723 µM,,18.1 µM,,4.83 µM,0.362 µM,5.04 µM and 4.46 µM,,5.77 µM
Cn1c(=O)nc2n(-c3ccc(Cl)cc3)c3cc(Cl)ccc3nc-2c1=O,,16.5 µM,,23.7 µM,,3.69 µM,,29.8 µM,,3.74 µM,,27.1 µM,,27.9 µM,,29.1 µM,,33 µM,,3.51 µM
NC(=S)N/N=C1\c2ccccc2-c2c(F)c(F)c(F)c(F)c21,1.8 µM,5.31 µM,6.56 µM,20 µM,2.05 µM,4.61 µM,0.298 µM,1.86 µM,5.81 µM,13.8 µM,5.65 µM,24.7 µM,11.4 µM,29.2 µM,13.6 µM,30.5 µM,16.7 µM,> 58.4 µM,2.93 µM,9.38 µM
CCOc1ccc(/C=C/c2cc(OC)c(OC)c(OC)c2)cc1,,44.6 µM,,37.4 µM,,> 22.1 µM,,> 100 µM,,> 93.8 µM,,> 29.6 µM,,> 83.6 µM,,> 100 µM,,> 100 µM,,> 100 µM
COc1cc(/C=C2\CCC/C(=C\c3ccc(O)c(OC)c3)C2=O)ccc1O,2.18 µM,25.6 µM and 15.5 µM,1.67 µM,4.42 µM and 3.07 µM,1.49 µM,8.44 µM and 3.36 µM,1.08 µM,,1.85 µM,8.94 µM and 4.53 µM,2.05 µM,11.2 µM and 4.96 µM,2.46 µM,22.1 µM and 10.2 µM,2.3 µM,26.6 µM and 5.67 µM,1.96 µM,10.8 µM and 5.04 µM,1.71 µM,27 µM and 6.74 µM
N#CC(C#N)=C1CCOc2ccc(F)cc21,16.2 µM,29.7 µM,16.2 µM,32.8 µM,15.5 µM,30.3 µM,12.6 µM,25.2 µM,17.4 µM,57 µM,14.2 µM,30.4 µM,27.3 µM,96.1 µM,16.4 µM,39.9 µM,26 µM,> 100 µM,> 100 µM,> 100 µM
Clc1cc(Cl)c(OCCCCCCN2CCNCC2)c(Cl)c1,2.04 µM,4.88 µM,1.73 µM,3.24 µM,1.82 µM,4.09 µM,2.16 µM,5.64 µM,3.07 µM,8.43 µM,2.03 µM,4.15 µM,3.87 µM,16.3 µM,2.82 µM,8.42 µM,10.6 µM,25.3 µM,2.77 µM,7.4 µM
CCc1cnn2c(NCc3ccc[n+]([O-])c3)cc(N3CCCC[C@H]3CCO)nc12,< 0.01 µM and 0.00393 µM,< 0.0136 µM,0.0101 µM and 0.00494 µM,> 100 µM,0.0351 µM and 0.0253 µM,> 35 µM,< 0.01 µM and 0.0016 µM,< 0.01 µM,< 0.01 µM and 0.0033 µM,> 10 µM,< 0.01 µM and 0.00464 µM,> 44.8 µM,< 0.0107 µM and 0.00366 µM,> 100 µM,< 0.01 µM and 0.00492 µM,> 35.7 µM,< 0.0163 µM and 0.00853 µM,> 10 µM,< 0.0135 µM and 0.0074 µM,

# From PubChem BioAssay (NCI)
